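Interpolation was linear, between the two tested concentrations surrounding the appropriate level; five concentrations were tested over 48 hours in 96-well plates. At the GI50, growth is halved.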 The source made the active and inactive calls. Cut-off read from the data, not from the text of the source: active = GI50 up to about 1.1 µM and inactive = higher.
Key:
Assay in all cases: growth of human tumour cells (NCI), 48 h
KM12 = tested on: KM12
NCI-H522 = tested on: NCI-H522
MOLT-4 = tested on: MOLT-4
IGROV-1 = tested on: IGROV-1
CCRF-CEM = tested on: CCRF-CEM
OVCAR-5 = tested on: OVCAR-5
TK-10 = tested on: TK-10
HCC 2998 = tested on: HCC 2998
RPMI-8226 = tested on: RPMI-8226
HCT-15 = tested on: HCT-15
NCI-H226 = tested on: NCI-H226
SF-268 = tested on: SF-268
SK-OV-3 = tested on: SK-OV-3
SK-MEL-5 = tested on: SK-MEL-5
CAKI-1 = tested on: CAKI-1
UACC-257 = tested on: UACC-257
M14 = tested on: M14
HOP-92 = tested on: HOP-92

| SMILES | GI50 (KM12) | GI50 (NCI-H522) | GI50 (MOLT-4) | GI50 (IGROV-1) | GI50 (CCRF-CEM) | GI50 (OVCAR-5) | GI50 (TK-10) | GI50 (HCC 2998) | GI50 (RPMI-8226) | GI50 (HCT-15) [µM] | GI50 (NCI-H226) | GI50 (SF-268) | GI50 (SK-OV-3) | GI50 (SK-MEL-5) | GI50 (CAKI-1) | GI50 (UACC-257) | GI50 (M14) | GI50 (HOP-92) |
| --- | --- | --- | --- | --- | --- | --- | --- | --- | --- | --- | --- | --- | --- | --- | --- | --- | --- | --- |
| COc1ccc(-c2nc3c(nc2-c2ccc(OC)cc2)C(N)=NS(=O)(=O)N3)cc1 | > 100 µM (inactive) | > 100 µM (inactive) | > 100 µM (inactive) | > 100 µM (inactive) | > 100 µM (inactive) | > 100 µM (inactive) | > 100 µM (inactive) | > 100 µM (inactive) | > 100 µM (inactive) | > 100 | > 100 µM (inactive) | > 100 µM (inactive) | > 100 µM (inactive) | > 100 µM (inactive) | > 100 µM (inactive) | > 100 µM (inactive) | – | – |
| Nc1nc2ncn(CC(O)CO)c2c(=S)[nH]1 (stereo not drawn) | > 100 µM (inactive) | > 100 µM (inactive) | – | > 100 µM (inactive) | > 100 µM (inactive) | > 100 µM (inactive) | > 100 µM (inactive) | – | > 100 µM (inactive) | > 100 | > 100 µM (inactive) | > 100 µM (inactive) | > 100 µM (inactive) | > 100 µM (inactive) | > 100 µM (inactive) | > 100 µM (inactive) | > 100 µM (inactive) | > 100 µM (inactive) |
| C1=CC(N(c2ccccc2)C2C=CCCC2)CCC1 (stereo not drawn) | – | 67 µM (inactive) | > 10 µM (inactive) | > 100 µM (inactive) | > 100 µM (inactive) | – | > 100 µM (inactive) | – | 32.4 µM (inactive) | > 100 | – | > 100 µM (inactive) | > 100 µM (inactive) | 84.1 µM (inactive) | > 100 µM (inactive) | – | > 100 µM (inactive) | 35.8 µM (inactive) |
| CCOc1ccc(N2C(=O)/C(=C/c3ccc(N(CCC#N)CCC#N)cc3)N=C2c2cc([N+](=O)[O-])ccc2Cl)cc1 | 18.9 µM (inactive) | – | 0.191 µM (active) | – | – | > 100 µM (inactive) | 58.1 µM (inactive) | 37.2 µM (inactive) | 15.7 µM (inactive) | 33.8 | 42.4 µM (inactive) | 30.8 µM (inactive) | > 100 µM (inactive) | 18.6 µM (inactive) | 14.8 µM (inactive) | – | 24.1 µM (inactive) | – |
| O=C1Nc2ccccc2C12CCNC2Cc1ccccc1 (stereo not drawn) | > 100 µM (inactive) | – | > 100 µM (inactive) | > 100 µM (inactive) | > 100 µM (inactive) | > 100 µM (inactive) | > 100 µM (inactive) | > 100 µM (inactive) | > 100 µM (inactive) | > 100 | – | > 100 µM (inactive) | > 100 µM (inactive) | > 100 µM (inactive) | > 100 µM (inactive) | > 100 µM (inactive) | > 100 µM (inactive) | 76.6 µM (inactive) |
| COc1ccc(C2S/C(=C\c3ccc([N+](=O)[O-])cc3)C(=O)N2NC(=O)Cc2ccccc2)cc1 (stereo not drawn) | > 100 µM (inactive) | > 100 µM (inactive) | 87.3 µM (inactive) | > 100 µM (inactive) | 82.8 µM (inactive) | > 100 µM (inactive) | > 100 µM (inactive) | – | > 100 µM (inactive) | 79.8 | > 100 µM (inactive) | > 100 µM (inactive) | > 100 µM (inactive) | > 100 µM (inactive) | > 100 µM (inactive) | 87.5 µM (inactive) | > 100 µM (inactive) | > 100 µM (inactive) |
| O=C1N[C@@H](O)[C@@H]2ON=C(c3ccccc3)[C@H]12 | > 100 µM (inactive) | – | > 100 µM (inactive) | > 100 µM (inactive) | > 100 µM (inactive) | > 100 µM (inactive) | > 100 µM (inactive) | > 100 µM (inactive) | > 100 µM (inactive) | > 100 | > 100 µM (inactive) | > 100 µM (inactive) | > 100 µM (inactive) | > 100 µM (inactive) | > 100 µM (inactive) | > 100 µM (inactive) | > 100 µM (inactive) | > 100 µM (inactive) |

Reference: ChEMBL document CHEMBL1201862, “PubChem BioAssay data set” (2004)
